Columns and labels:
[1] = target: T1, SUV39H2 (Homo sapiens, UniProt Q9H5I1); experiment: Epigenetics selectivity panel (BPS Bioscience); assay type: biochemical
T1 construct: purchased DiscoverX KINOMEscan (kinases); BPS Bioscience (epigenetic targets)

[2] = target: T2, Jarid1C (Homo sapiens, UniProt P41229); experiment: Epigenetics selectivity panel (BPS Bioscience); assay type: biochemical
T2 construct: purchased DiscoverX KINOMEscan (kinases); BPS Bioscience (epigenetic targets)

[3] = PAMPA permeability; assay type: in vitro ADME; settings: pH 7.4
[4] = target: T3, ABL1(E255K)-phosphorylated (Homo sapiens, UniProt P00519, E255K); experiment: KINOMEscan kinase profiling; assay type: binding; settings: read-out: Percent Control
T3 construct: purchased DiscoverX KINOMEscan (kinases); BPS Bioscience (epigenetic targets)
Experimental: (§1) Kinase Selectivity Profiling
(§2) (out of which 90 are non-mutant kinases) was performed at DiscoverRx (http://www.discoverx.com/home) using the KINOMEscan™ screening platform at a test concentration of 10 µM. Results for primary screen […]
(§3) positive control signal) / (negative control signal – positive control signal) *100, where negative control corresponds to DMSO treatment (100%) and positive control to the signal obtained with a control competitive compound (0%). […]
(§4) using the Hill equation. Each target was assayed in duplicate. […]

[5] = target: T4, ADCK3 (Homo sapiens, UniProt Q8NI60); experiment: KINOMEscan kinase profiling; assay type: binding; settings: read-out: Percent Control
T4 construct: purchased DiscoverX KINOMEscan (kinases); BPS Bioscience (epigenetic targets)
Experimental: as §1, §2, §3, §4

[6] = target: T5, AURKB (Homo sapiens, UniProt Q96GD4); experiment: KINOMEscan kinase profiling; assay type: binding; settings: read-out: Percent Control
T5 construct: purchased DiscoverX KINOMEscan (kinases); BPS Bioscience (epigenetic targets)
Experimental: as §1, §2, §3, §4

[7] = target: T6, AXL (Homo sapiens, UniProt P30530); experiment: KINOMEscan kinase profiling; assay type: binding; settings: read-out: Percent Control
T6 construct: purchased DiscoverX KINOMEscan (kinases); BPS Bioscience (epigenetic targets)
Experimental: as §1, §2, §3, §4

[8] = target: T7, BRAF(V600E) (Homo sapiens, UniProt P15056, V600E); experiment: KINOMEscan kinase profiling; assay type: binding; settings: read-out: Percent Control
T7 construct: purchased DiscoverX KINOMEscan (kinases); BPS Bioscience (epigenetic targets)
Experimental: as §1, §2, §3, §4

[9] = target: T8, DCAMKL1 (Homo sapiens, UniProt O15075); experiment: KINOMEscan kinase profiling; assay type: binding; settings: read-out: Percent Control
T8 construct: purchased DiscoverX KINOMEscan (kinases); BPS Bioscience (epigenetic targets)
Experimental: as §1, §2, §3, §4

[10] = target: T9, EGFR(L858R) (Homo sapiens, UniProt P00533, L858R); experiment: KINOMEscan kinase profiling; assay type: binding; settings: read-out: Percent Control
T9 construct: purchased DiscoverX KINOMEscan (kinases); BPS Bioscience (epigenetic targets)
Experimental: as §1, §2, §3, §4

[11] = target: T10, EPHA2 (Homo sapiens, UniProt P29317); experiment: KINOMEscan kinase profiling; assay type: binding; settings: read-out: Percent Control
T10 construct: purchased DiscoverX KINOMEscan (kinases); BPS Bioscience (epigenetic targets)
Experimental: as §1, §2, §3, §4

[12] = target: T11, ERBB2 (Homo sapiens, UniProt P04626); experiment: KINOMEscan kinase profiling; assay type: binding
T11 construct: purchased DiscoverRx (DiscoverX), KINOMEscan screening platform
Experimental: as §1, §2, §3, §4

[13] = target: T12, FAK (Homo sapiens, UniProt Q05397); experiment: KINOMEscan kinase profiling; assay type: binding; settings: read-out: Percent Control
T12 construct: purchased DiscoverX KINOMEscan (kinases); BPS Bioscience (epigenetic targets)
Experimental: as §1, §2, §3, §4

[14] = target: T13, GSK3B (Homo sapiens, UniProt P49841); experiment: KINOMEscan kinase profiling; assay type: binding; settings: read-out: Percent Control
T13 construct: purchased DiscoverX KINOMEscan (kinases); BPS Bioscience (epigenetic targets)
Experimental: as §1, §2, §3, §4

[15] = target: T14, INSR (Homo sapiens, UniProt P06213); experiment: KINOMEscan kinase profiling; assay type: binding; settings: read-out: Percent Control
T14 construct: purchased DiscoverX KINOMEscan (kinases); BPS Bioscience (epigenetic targets)
Experimental: as §1, §2, §3, §4

[16] = target: T15, JAK2(JH1domain-catalytic) (Homo sapiens, UniProt O60674); experiment: KINOMEscan kinase profiling; assay type: binding; settings: read-out: Percent Control
T15 construct: JAK2(JH1domain-catalytic); purchased DiscoverX KINOMEscan (kinases); BPS Bioscience (epigenetic targets)
Experimental: as §1, §2, §3, §4

[17] = target: T16, JNK1 (Homo sapiens, UniProt P45983); experiment: KINOMEscan kinase profiling; assay type: binding; settings: read-out: Percent Control
T16 construct: purchased DiscoverX KINOMEscan (kinases); BPS Bioscience (epigenetic targets)
Experimental: as §1, §2, §3, §4

[18] = target: T17, KIT(D816V) (Homo sapiens, UniProt P10721, D816V); experiment: KINOMEscan kinase profiling; assay type: binding; settings: read-out: Percent Control
T17 construct: purchased DiscoverX KINOMEscan (kinases); BPS Bioscience (epigenetic targets)
Experimental: as §1, §2, §3, §4

[19] = target: T18, KIT(V559D,T670I) (Homo sapiens, UniProt P10721, T670I/V559D); experiment: KINOMEscan kinase profiling; assay type: binding; settings: read-out: Percent Control
T18 construct: purchased DiscoverX KINOMEscan (kinases); BPS Bioscience (epigenetic targets)
Experimental: as §1, §2, §3, §4

[20] = target: T19, LKB1 (Homo sapiens, UniProt Q15831); experiment: KINOMEscan kinase profiling; assay type: binding; settings: read-out: Percent Control
T19 construct: purchased DiscoverX KINOMEscan (kinases); BPS Bioscience (epigenetic targets)
Experimental: as §1, §2, §3, §4

[21] = target: T20, MKNK2 (Homo sapiens, UniProt Q9HBH9); experiment: KINOMEscan kinase profiling; assay type: binding; settings: read-out: Percent Control
T20 construct: purchased DiscoverX KINOMEscan (kinases); BPS Bioscience (epigenetic targets)
Experimental: as §1, §2, §3, §4

[22] = target: T21, PDGFRA (Homo sapiens, UniProt P16234); experiment: KINOMEscan kinase profiling; assay type: binding; settings: read-out: Percent Control
T21 construct: purchased DiscoverX KINOMEscan (kinases); BPS Bioscience (epigenetic targets)
Experimental: as §1, §2, §3, §4

[23] = target: T22, PDGFRB (Homo sapiens, UniProt P09619); experiment: KINOMEscan kinase profiling; assay type: binding; settings: read-out: Percent Control
T22 construct: purchased DiscoverX KINOMEscan (kinases); BPS Bioscience (epigenetic targets)
Experimental: as §1, §2, §3, §4

[24] = target: T23, PIM2 (Homo sapiens, UniProt Q9P1W9); experiment: KINOMEscan kinase profiling; assay type: binding; settings: read-out: Percent Control
T23 construct: purchased DiscoverX KINOMEscan (kinases); BPS Bioscience (epigenetic targets)
Experimental: as §1, §2, §3, §4

[25] = target: T24, PLK1 (Homo sapiens, UniProt P53350); experiment: KINOMEscan kinase profiling; assay type: binding; settings: read-out: Percent Control
T24 construct: purchased DiscoverX KINOMEscan (kinases); BPS Bioscience (epigenetic targets)
Experimental: as §1, §2, §3, §4

[26] = target: T25, PLK4 (Homo sapiens, UniProt O00444); experiment: KINOMEscan kinase profiling; assay type: binding; settings: read-out: Percent Control
T25 construct: purchased DiscoverX KINOMEscan (kinases); BPS Bioscience (epigenetic targets)
Experimental: as §1, §2, §3, §4

[27] = target: T26, PRKCE (Homo sapiens, UniProt Q02156); experiment: KINOMEscan kinase profiling; assay type: binding
T26 construct: purchased DiscoverRx (DiscoverX), KINOMEscan screening platform
Experimental: as §1, §2, §3, §4

[28] = target: T27, RIOK2 (Homo sapiens, UniProt Q9BVS4); experiment: KINOMEscan kinase profiling; assay type: binding; settings: read-out: Percent Control
T27 construct: purchased DiscoverX KINOMEscan (kinases); BPS Bioscience (epigenetic targets)
Experimental: as §1, §2, §3, §4

[29] = target: T28, ROCK2 (Homo sapiens, UniProt O75116); experiment: KINOMEscan kinase profiling; assay type: binding
T28 construct: purchased DiscoverRx (DiscoverX), KINOMEscan screening platform
Experimental: as §1, §2, §3, §4

[30] = target: T29, SRC (Homo sapiens, UniProt P12931); experiment: KINOMEscan kinase profiling; assay type: binding; settings: read-out: Percent Control
T29 construct: purchased DiscoverX KINOMEscan (kinases); BPS Bioscience (epigenetic targets)
Experimental: as §1, §2, §3, §4

[31] = target: T30, SRPK3 (Homo sapiens, UniProt Q9UPE1); experiment: KINOMEscan kinase profiling; assay type: binding; settings: read-out: Percent Control
T30 construct: purchased DiscoverX KINOMEscan (kinases); BPS Bioscience (epigenetic targets)
Experimental: as §1, §2, §3, §4

[32] = target: T31, TRKA (Homo sapiens, UniProt P04629); experiment: KINOMEscan kinase profiling; assay type: binding
T31 construct: purchased DiscoverRx (DiscoverX), KINOMEscan screening platform
Experimental: as §1, §2, §3, §4

[33] = target: T32, TSSK1B (Homo sapiens, UniProt Q9BXA7); experiment: KINOMEscan kinase profiling; assay type: binding; settings: read-out: Percent Control
T32 construct: purchased DiscoverX KINOMEscan (kinases); BPS Bioscience (epigenetic targets)
Experimental: as §1, §2, §3, §4

[34] = target: T33, ULK2 (Homo sapiens, UniProt Q8IYT8); experiment: KINOMEscan kinase profiling; assay type: binding; settings: read-out: Percent Control
T33 construct: purchased DiscoverX KINOMEscan (kinases); BPS Bioscience (epigenetic targets)
Experimental: as §1, §2, §3, §4

[35] = target: T34, p38-beta (Homo sapiens, UniProt Q15759); experiment: KINOMEscan kinase profiling; assay type: binding; settings: read-out: Percent Control
T34 construct: purchased DiscoverX KINOMEscan (kinases); BPS Bioscience (epigenetic targets)
Experimental: as §1, §2, §3, §4

[36] = tested on: SU-DHL-4; experiment: Cell proliferation assay (MTS); assay type: cell-based; settings: Homo sapiens, GC-DLBCL, 48 h
[37] = tested on: 5637; experiment: Cell proliferation assay (MTS); assay type: cell-based; settings: Homo sapiens; Bladder
[38] = tested on: MGH-U3; experiment: Cell proliferation assay (MTS); assay type: cell-based; settings: Homo sapiens; Bladder
[39] = tested on: HELA; experiment: Cell proliferation assay (MTS); assay type: cell-based; settings: Homo sapiens, Cervical
[40] = tested on: HCC95; experiment: Cell proliferation assay (MTS); assay type: cell-based; settings: Homo sapiens, SCLC
[41] = 10 µM, read-out: Percent Control

T11 sequence (P04626 23-1255): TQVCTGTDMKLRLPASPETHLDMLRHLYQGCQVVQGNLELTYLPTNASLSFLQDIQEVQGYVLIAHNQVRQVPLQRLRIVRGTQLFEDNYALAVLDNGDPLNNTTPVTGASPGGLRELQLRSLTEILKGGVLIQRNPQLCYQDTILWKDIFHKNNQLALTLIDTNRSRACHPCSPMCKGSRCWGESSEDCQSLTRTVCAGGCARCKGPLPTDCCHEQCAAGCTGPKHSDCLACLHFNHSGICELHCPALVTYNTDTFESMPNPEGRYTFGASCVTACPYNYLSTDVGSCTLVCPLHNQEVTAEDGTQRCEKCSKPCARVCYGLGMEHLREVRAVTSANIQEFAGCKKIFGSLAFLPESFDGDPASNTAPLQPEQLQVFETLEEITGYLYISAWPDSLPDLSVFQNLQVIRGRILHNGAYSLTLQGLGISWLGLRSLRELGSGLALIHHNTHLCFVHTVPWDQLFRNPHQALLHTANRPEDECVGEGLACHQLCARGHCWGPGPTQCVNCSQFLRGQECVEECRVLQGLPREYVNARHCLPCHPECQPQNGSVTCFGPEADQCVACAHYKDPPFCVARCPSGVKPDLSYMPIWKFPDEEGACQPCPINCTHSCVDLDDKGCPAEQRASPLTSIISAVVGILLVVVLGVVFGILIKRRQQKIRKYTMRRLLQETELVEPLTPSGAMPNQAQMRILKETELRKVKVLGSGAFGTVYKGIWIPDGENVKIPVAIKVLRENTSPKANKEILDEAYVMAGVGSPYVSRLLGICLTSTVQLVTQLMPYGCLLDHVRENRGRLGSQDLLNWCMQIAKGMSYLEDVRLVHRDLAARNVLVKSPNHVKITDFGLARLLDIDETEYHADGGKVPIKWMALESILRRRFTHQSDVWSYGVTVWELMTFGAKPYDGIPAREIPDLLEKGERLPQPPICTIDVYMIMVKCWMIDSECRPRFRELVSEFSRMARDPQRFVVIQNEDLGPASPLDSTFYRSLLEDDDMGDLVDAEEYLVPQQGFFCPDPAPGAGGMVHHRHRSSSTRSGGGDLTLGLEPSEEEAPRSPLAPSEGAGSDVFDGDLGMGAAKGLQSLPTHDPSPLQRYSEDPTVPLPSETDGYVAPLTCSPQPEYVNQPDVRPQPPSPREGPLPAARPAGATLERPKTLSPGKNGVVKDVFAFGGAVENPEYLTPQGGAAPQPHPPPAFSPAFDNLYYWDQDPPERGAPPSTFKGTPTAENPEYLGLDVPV
T31 sequence (P04629 33-796): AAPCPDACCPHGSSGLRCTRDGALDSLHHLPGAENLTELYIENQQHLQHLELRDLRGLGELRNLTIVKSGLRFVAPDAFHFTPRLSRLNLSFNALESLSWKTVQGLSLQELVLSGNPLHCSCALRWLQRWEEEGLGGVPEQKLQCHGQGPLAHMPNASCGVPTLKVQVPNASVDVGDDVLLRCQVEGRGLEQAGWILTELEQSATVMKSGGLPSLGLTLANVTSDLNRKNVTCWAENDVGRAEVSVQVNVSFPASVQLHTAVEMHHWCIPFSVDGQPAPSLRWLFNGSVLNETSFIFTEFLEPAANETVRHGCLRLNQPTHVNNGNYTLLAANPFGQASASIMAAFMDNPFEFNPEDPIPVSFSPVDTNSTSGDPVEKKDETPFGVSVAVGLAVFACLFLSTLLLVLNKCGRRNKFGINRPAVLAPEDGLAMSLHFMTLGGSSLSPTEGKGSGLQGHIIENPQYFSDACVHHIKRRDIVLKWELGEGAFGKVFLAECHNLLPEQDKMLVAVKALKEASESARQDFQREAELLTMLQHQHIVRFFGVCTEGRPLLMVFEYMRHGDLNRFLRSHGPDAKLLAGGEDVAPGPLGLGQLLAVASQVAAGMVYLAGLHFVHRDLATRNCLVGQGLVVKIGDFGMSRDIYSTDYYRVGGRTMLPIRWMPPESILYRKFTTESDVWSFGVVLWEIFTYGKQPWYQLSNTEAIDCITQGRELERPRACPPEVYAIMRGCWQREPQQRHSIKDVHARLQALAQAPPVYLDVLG
T28 sequence (O75116 whole entry): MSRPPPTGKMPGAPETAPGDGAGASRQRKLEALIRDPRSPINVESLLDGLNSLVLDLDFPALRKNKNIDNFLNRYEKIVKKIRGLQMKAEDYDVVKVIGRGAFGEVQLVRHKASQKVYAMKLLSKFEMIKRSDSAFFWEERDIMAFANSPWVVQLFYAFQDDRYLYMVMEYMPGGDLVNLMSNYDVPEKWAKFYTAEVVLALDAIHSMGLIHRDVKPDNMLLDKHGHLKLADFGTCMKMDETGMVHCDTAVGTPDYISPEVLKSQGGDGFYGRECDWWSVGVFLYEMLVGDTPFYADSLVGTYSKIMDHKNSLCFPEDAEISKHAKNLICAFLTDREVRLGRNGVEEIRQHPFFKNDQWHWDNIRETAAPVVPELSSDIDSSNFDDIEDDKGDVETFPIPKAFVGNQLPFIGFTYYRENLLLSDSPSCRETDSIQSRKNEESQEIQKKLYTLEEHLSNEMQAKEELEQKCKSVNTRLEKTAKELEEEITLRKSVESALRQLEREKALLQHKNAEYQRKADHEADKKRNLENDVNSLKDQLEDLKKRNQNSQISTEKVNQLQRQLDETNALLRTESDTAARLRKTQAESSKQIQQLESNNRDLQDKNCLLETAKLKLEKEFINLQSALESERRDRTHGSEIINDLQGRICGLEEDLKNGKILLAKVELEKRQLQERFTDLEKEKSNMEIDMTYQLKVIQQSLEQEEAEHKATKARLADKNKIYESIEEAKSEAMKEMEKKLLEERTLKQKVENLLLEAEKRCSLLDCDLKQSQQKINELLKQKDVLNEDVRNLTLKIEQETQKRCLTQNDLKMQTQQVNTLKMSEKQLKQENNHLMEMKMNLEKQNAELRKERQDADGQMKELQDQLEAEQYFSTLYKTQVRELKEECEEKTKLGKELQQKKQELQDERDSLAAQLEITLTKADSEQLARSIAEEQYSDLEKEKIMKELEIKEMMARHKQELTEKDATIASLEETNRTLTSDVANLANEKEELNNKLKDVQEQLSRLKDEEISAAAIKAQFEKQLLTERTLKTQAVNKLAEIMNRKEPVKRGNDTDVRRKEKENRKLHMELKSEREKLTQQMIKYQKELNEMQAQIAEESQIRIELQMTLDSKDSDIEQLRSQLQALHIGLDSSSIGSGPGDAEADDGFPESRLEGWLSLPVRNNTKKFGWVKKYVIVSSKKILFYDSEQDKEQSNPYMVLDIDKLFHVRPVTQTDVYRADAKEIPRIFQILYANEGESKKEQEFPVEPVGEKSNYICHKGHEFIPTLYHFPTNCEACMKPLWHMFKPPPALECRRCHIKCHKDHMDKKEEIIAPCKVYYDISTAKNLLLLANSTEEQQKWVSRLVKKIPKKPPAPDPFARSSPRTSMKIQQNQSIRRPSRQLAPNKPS
T2 sequence (P41229 whole entry): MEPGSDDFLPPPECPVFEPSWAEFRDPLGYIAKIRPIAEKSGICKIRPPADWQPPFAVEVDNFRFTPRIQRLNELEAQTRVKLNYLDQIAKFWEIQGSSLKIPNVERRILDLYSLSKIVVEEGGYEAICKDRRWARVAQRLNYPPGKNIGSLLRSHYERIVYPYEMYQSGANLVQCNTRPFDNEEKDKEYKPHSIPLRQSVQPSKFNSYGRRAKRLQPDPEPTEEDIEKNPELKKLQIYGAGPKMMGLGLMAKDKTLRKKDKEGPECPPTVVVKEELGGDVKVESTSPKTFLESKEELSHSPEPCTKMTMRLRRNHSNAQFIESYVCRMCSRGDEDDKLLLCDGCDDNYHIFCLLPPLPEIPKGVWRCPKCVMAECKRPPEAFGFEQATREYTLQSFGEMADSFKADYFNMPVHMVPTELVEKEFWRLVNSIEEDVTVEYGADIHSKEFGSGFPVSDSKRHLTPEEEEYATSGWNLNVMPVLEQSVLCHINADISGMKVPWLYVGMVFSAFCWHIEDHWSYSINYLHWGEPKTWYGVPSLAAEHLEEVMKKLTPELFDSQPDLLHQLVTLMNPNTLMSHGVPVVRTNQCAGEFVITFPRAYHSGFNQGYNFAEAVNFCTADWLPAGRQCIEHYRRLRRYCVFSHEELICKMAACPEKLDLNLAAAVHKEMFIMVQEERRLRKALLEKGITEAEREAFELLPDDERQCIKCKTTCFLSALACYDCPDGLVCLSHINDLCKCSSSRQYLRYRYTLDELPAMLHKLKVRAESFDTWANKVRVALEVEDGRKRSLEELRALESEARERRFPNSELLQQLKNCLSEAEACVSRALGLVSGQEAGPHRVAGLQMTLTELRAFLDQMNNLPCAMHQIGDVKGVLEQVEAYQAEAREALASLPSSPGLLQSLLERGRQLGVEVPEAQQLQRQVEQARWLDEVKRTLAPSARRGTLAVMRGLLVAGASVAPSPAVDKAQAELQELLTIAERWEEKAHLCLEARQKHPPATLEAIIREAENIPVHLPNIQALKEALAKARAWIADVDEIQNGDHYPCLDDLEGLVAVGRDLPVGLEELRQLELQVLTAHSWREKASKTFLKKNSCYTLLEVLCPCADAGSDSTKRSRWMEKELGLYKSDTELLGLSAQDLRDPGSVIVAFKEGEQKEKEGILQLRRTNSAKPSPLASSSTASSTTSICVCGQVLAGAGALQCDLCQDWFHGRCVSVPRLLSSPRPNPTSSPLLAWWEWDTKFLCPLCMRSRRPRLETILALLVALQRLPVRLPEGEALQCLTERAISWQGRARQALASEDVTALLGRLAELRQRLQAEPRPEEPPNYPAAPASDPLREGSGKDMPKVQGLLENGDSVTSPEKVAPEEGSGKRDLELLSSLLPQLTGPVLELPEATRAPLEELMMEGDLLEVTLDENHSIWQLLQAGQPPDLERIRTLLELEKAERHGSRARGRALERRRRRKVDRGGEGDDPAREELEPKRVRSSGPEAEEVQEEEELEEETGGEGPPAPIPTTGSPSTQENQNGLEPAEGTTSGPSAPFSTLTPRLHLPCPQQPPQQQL

For `COc1cc2c(NC3CCN(C)CC3)cc(-c3ccc(C)o3)nc2cc1OCCCN1CCCC1` [CM-272, 6-methoxy-2-(5-methyl-2-furyl)-N-(1-methyl-4-piperidyl)-7-(3-pyrrolidin-1-ylpropoxy)quinolin-4-amine], the inhibition at 10 µM [1] was 4%, the inhibition at 10 µM [2] was 1% and the “PAMPA (Pe)” value [3] was 0.16 10-6 in nm/s. It also gave a remaining binding at 10 µM [4] of 5.5%, a remaining binding at 10 µM [5] of 100% and a remaining binding at 10 µM [6] of 61%. The remaining binding at 10 µM [7] was 100%, the remaining binding at 10 µM [8] was 27% and the remaining binding at 10 µM [9] was 22%. For the same compound, the remaining binding at 10 µM [10] was 100%, the remaining binding at 10 µM [11] was 100% and the remaining binding at 10 µM [12, 41] was 0%. It also gave a Kd ([12]; KINOMEscan) of 1600 nM, a remaining binding at 10 µM [13] of 96% and a remaining binding at 10 µM [14] of 61%. For the same compound, the remaining binding at 10 µM [15] was 5.1%, the remaining binding at 10 µM [16] was 10% and the remaining binding at 10 µM [17] was 25%. The remaining binding at 10 µM [18] was 100%, the remaining binding at 10 µM [19] was 100% and the remaining binding at 10 µM [20] was 100%. For the same compound, the remaining binding at 10 µM [21] was 18%, the remaining binding at 10 µM [22] was 14% and the remaining binding at 10 µM [23] was 100%. The remaining binding at 10 µM [24] was 93%, the remaining binding at 10 µM [25] was 31% and the remaining binding at 10 µM [26] was 80%. The remaining binding at 10 µM [27, 41] was 0%, the Kd ([27]; KINOMEscan) was 1200 nM and the remaining binding at 10 µM [28] was 27%. For the same compound, the remaining binding at 10 µM [29, 41] was 0.3%, the Kd ([29]; KINOMEscan) was 1700 nM and the remaining binding at 10 µM [30] was 100%. The remaining binding at 10 µM [31] was 100%, the remaining binding at 10 µM [32, 41] was 0% and the Kd ([32]; KINOMEscan) was 1100 nM. It also gave a remaining binding at 10 µM [33] of 100%, a remaining binding at 10 µM [34] of 9.8% and a remaining binding at 10 µM [35] of 92%. For the same compound, the GI50 [36] was 1160 nM, the GI50 [37] was 717 nM and the GI50 [38] was 456 nM. For the same compound, the GI50 [39] was 689 nM and the GI50 [40] was 751 nM.

For `COc1cc2c(NCC3CCN(C)CC3)cc(-c3ccc(C)o3)nc2cc1OCCCN1CCCC1` [CM-579, 6-methoxy-2-(5-methyl-2-furyl)-N-[(1-methyl-4-piperidyl)methyl]-7-(3-pyrrolidin-1-ylpropoxy)quinolin-4-amine], the inhibition at 10 µM [1] was 0%, the inhibition at 10 µM [2] was 13% and the “PAMPA (Pe)” value [3] was 0.01 10-6 in nm/s. The GI50 [38] was 141 nM, the GI50 [39] was 109 nM and the GI50 [40] was 613 nM.

Source: paper PMC5458547, “Discovery of first-in-class reversible dual small molecule inhibitors against G9a and DNMTs in hematological malignancies” (Nature Communications, 2017)
